Assay results: ChEMBL document CHEMBL4507262, “Data for DCP probe A-1596586” (2021)

Columns and labels:
[1] = biological target: Glycogen synthase kinase-3 beta (Homo sapiens) (UniProt P49841); conditions: Compound concentration 1000.0 nM
[2] = biological target: Dual specificity mitogen-activated protein kinase kinase 4 (Homo sapiens) (UniProt P45985); conditions: Compound concentration 1000.0 nM
[3] = biological target: Endothelin receptor type B (Homo sapiens) (UniProt P24530); assay: ETB (h) Eurofins-Cerep binding assay; parameters: ligand concentration 0.03 nM; conditions: filed as agonist, Compound concentration 10.0 uM
[4] = tested on: Tyrosine-protein kinase ABL1 (Homo sapiens), P00519 [Q252H]; conditions: Compound concentration 1000.0 nM
[5] = biological target: Vasoactive intestinal polypeptide receptor 1 (Homo sapiens) (UniProt P32241); assay: VPAC1 (VIP1) (h) Eurofins-Cerep binding assay; conditions: filed as agonist, Compound concentration 10.0 uM
[6] = biological target: GABA-A receptor; alpha-1/beta-2/gamma-2 (Homo sapiens) (UniProt P14867+P47870+P18507); assay: GABAA1 (h) (alpha1,beta2,gamma2) Eurofins-Cerep binding assay; type: protein-complex assay; parameters: ligand concentration 15 nM; conditions: filed as agonist, Compound concentration 10.0 uM
[7] = biological target: Serine/threonine-protein kinase 33 (Homo sapiens) (UniProt Q9BYT3); conditions: Compound concentration 1000.0 nM
[8] = biological target: Calcium/calmodulin-dependent protein kinase type 1 (Homo sapiens) (UniProt Q14012); conditions: Compound concentration 1000.0 nM
[9] = biological target: Serine/threonine-protein kinase 38-like (Homo sapiens) (UniProt Q9Y2H1); conditions: Compound concentration 1000.0 nM
[10] = biological target: Ephrin type-B receptor 3 (Homo sapiens) (UniProt P54753); conditions: Compound concentration 1000.0 nM
Chain of Ephrin type-B receptor 3 (Homo sapiens) (P54753 whole entry): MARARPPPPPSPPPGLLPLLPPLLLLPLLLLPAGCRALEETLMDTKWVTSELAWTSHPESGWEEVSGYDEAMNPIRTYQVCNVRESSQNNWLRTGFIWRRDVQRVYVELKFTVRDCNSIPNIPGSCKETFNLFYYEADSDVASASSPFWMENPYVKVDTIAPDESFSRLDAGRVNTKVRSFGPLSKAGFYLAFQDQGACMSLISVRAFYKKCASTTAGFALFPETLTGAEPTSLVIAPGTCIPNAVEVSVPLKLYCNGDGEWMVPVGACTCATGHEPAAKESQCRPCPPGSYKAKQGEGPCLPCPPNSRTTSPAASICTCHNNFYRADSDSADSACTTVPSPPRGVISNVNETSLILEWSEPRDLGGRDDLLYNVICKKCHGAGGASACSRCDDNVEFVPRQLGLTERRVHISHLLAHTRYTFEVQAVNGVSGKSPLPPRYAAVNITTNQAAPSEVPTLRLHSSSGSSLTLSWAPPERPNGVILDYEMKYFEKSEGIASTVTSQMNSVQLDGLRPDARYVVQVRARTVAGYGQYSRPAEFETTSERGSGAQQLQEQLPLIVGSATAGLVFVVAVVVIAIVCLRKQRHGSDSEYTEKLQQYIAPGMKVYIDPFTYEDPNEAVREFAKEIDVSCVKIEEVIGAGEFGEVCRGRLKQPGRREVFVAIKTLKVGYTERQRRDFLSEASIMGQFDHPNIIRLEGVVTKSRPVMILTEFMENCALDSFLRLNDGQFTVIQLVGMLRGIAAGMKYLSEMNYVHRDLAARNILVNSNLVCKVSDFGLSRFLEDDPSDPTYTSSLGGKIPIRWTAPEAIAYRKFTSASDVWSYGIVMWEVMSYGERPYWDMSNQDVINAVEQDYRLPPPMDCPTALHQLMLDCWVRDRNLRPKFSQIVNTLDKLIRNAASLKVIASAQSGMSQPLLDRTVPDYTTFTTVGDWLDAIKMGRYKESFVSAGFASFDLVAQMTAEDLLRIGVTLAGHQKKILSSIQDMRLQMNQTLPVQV

[11] = biological target: Protein kinase C eta type (Homo sapiens) (UniProt P24723); conditions: Compound concentration 1000.0 nM
[12] = biological target: Homeodomain-interacting protein kinase 3 (Homo sapiens) (UniProt Q9H422); conditions: Compound concentration 1000.0 nM
[13] = biological target: Mitogen-activated protein kinase 14 (Homo sapiens) (UniProt Q16539); conditions: Compound concentration 1000.0 nM
[14] = biological target: Mitogen-activated protein kinase kinase kinase kinase 1 (Homo sapiens) (UniProt Q92918); conditions: Compound concentration 1000.0 nM
[15] = biological target: Serine/threonine-protein kinase D2 (Homo sapiens) (UniProt Q9BZL6); conditions: Compound concentration 1000.0 nM
Chain of Serine/threonine-protein kinase D2 (Homo sapiens) (Q9BZL6 whole entry): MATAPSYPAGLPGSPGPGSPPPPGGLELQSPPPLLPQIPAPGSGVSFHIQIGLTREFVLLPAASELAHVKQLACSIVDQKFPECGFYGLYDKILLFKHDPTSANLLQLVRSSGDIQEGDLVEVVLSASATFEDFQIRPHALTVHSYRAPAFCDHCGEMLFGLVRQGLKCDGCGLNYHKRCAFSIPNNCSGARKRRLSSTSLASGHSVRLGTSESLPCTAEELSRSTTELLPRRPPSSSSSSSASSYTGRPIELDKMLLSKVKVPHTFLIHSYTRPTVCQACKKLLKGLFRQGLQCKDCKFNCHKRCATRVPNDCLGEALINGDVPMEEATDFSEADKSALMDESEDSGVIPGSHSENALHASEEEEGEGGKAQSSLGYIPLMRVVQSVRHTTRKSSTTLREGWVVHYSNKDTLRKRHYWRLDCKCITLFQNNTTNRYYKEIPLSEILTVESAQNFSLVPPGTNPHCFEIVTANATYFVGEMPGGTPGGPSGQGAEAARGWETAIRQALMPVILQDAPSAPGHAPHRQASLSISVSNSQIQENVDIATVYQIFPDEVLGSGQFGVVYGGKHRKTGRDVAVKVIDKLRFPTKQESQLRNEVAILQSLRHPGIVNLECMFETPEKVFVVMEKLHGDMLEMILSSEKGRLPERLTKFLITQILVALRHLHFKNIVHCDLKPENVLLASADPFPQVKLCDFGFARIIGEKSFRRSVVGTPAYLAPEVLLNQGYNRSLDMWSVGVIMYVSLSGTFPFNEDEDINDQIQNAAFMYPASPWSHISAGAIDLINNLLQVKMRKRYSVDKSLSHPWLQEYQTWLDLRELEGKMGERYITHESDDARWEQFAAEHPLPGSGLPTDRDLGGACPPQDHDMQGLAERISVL

[16] = tested on: Epidermal growth factor receptor (Homo sapiens), P00533 [G719S]; conditions: Compound concentration 1000.0 nM
[17] = biological target: Interleukin-1 receptor-associated kinase 4 (Homo sapiens) (UniProt Q9NWZ3); conditions: Compound concentration 1000.0 nM
[18] = biological target: Serine/threonine-protein kinase D1 (Homo sapiens) (UniProt Q15139); conditions: Compound concentration 1000.0 nM
[19] = biological target: AP2-associated protein kinase 1 (Homo sapiens) (UniProt Q2M2I8); conditions: Compound concentration 1000.0 nM
[20] = biological target: Serine/threonine-protein kinase PAK 5 (Homo sapiens) (UniProt Q9P286); conditions: Compound concentration 1000.0 nM
[21] = biological target: Serine/threonine-protein kinase DCLK2 (Homo sapiens) (UniProt Q8N568); conditions: Compound concentration 1000.0 nM
Chain of Serine/threonine-protein kinase DCLK2 (Homo sapiens) (Q8N568 whole entry): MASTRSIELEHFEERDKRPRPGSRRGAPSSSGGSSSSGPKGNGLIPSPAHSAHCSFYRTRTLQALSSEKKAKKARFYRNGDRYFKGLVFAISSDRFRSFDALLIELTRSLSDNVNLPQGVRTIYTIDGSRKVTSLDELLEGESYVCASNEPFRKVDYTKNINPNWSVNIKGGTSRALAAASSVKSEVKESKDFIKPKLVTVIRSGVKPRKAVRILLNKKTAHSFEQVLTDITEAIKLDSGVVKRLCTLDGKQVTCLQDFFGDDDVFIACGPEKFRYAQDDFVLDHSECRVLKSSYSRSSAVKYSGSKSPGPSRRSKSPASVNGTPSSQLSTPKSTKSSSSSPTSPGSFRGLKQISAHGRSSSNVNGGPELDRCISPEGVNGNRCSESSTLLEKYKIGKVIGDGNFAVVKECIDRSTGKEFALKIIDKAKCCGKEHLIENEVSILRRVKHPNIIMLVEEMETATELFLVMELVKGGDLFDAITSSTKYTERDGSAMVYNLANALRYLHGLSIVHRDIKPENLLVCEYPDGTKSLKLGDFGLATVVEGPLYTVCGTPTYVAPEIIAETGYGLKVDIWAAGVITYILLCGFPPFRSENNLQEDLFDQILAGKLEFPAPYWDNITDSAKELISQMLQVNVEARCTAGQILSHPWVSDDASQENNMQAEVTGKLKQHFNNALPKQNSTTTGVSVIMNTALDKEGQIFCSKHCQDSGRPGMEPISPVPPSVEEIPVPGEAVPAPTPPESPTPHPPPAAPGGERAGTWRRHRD

[22] = biological target: Ribosomal protein S6 kinase alpha-5 (Homo sapiens) (UniProt O75582); conditions: Compound concentration 1000.0 nM
Chain of Ribosomal protein S6 kinase alpha-5 (Homo sapiens) (O75582 whole entry, looked up): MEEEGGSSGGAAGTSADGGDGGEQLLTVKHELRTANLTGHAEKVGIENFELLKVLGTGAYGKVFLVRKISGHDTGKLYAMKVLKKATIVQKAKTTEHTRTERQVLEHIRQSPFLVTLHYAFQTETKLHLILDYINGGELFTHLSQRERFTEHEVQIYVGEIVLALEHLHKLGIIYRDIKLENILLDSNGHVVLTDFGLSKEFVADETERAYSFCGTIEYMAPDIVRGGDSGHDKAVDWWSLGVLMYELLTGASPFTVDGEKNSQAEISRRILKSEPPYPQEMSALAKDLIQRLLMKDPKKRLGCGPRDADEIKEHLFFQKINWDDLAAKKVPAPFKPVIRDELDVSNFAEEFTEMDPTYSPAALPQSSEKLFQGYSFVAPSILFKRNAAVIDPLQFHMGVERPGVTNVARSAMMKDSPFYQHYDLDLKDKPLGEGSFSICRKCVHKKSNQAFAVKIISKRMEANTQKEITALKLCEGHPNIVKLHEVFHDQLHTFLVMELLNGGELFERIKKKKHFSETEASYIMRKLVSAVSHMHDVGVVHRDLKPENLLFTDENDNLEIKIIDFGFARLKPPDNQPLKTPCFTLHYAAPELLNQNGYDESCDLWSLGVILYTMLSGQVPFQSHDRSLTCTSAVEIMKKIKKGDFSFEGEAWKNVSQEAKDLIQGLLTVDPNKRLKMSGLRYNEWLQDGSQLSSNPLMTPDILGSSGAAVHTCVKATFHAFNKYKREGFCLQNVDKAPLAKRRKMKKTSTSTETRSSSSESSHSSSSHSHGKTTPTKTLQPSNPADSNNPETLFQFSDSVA

[23] = biological target: Ribosomal protein S6 kinase alpha-5 (Homo sapiens) (UniProt O75582); conditions: Compound concentration 1000.0 nM; remark: listed apart in the source
[24] = biological target: Cannabinoid receptor 2 (Homo sapiens) (UniProt P34972); assay: CB2 (h) Eurofins-Cerep binding assay; parameters: ligand concentration 0.8 nM; conditions: filed as agonist, Compound concentration 10.0 uM
[25] = biological target: Mitogen-activated protein kinase kinase kinase 10 (Homo sapiens) (UniProt Q02779); conditions: Compound concentration 1000.0 nM
[26] = biological target: Phosphatidylinositol 4-phosphate 3-kinase C2 domain-containing subunit beta (Homo sapiens) (UniProt O00750); conditions: Compound concentration 1000.0 nM
[27] = biological target: Ephrin type-A receptor 3 (Homo sapiens) (UniProt P29320); conditions: Compound concentration 1000.0 nM
[28] = biological target: T1, Muscarinic acetylcholine receptor M2 (Homo sapiens) (UniProt P08172); assay: M2 (h) Eurofins-Cerep binding assay; parameters: ligand concentration 2 nM; conditions: filed as antagonist, Compound concentration 10.0 uM
T1 sequence (whole entry): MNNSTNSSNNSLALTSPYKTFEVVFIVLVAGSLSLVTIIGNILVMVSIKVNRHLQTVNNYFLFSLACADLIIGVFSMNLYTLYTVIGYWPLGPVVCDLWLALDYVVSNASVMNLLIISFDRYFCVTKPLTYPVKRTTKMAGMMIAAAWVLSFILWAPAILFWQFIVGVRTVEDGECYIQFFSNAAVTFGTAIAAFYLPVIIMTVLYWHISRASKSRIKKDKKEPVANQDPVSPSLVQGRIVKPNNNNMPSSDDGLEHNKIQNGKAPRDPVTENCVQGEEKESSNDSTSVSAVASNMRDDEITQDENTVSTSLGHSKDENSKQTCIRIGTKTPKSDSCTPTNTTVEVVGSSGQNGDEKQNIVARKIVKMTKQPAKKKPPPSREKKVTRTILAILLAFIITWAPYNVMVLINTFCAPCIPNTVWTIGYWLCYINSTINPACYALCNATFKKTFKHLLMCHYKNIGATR

[29] = biological target: Serine/threonine-protein kinase 24 (Homo sapiens) (UniProt Q9Y6E0); conditions: Compound concentration 1000.0 nM
[30] = biological target: Serine/threonine-protein kinase MAK (Homo sapiens) (UniProt P20794); conditions: Compound concentration 1000.0 nM
[31] = biological target: Serine/threonine-protein kinase 25 (Homo sapiens) (UniProt O00506); conditions: Compound concentration 1000.0 nM
[32] = tested on: Phosphatidylinositol 4,5-bisphosphate 3-kinase catalytic subunit alpha isoform (Homo sapiens), P42336 [Q546K]; conditions: Compound concentration 1000.0 nM
[33] = biological target: Serine/threonine-protein kinase RIO3 (Homo sapiens) (UniProt O14730); conditions: Compound concentration 1000.0 nM
[34] = biological target: Tyrosine-protein kinase JAK1 (Homo sapiens) (UniProt P23458); conditions: Compound concentration 1000.0 nM
[35] = biological target: Homeodomain-interacting protein kinase 1 (Homo sapiens) (UniProt Q86Z02); conditions: Compound concentration 1000.0 nM
Chain of Homeodomain-interacting protein kinase 1 (Homo sapiens) (Q86Z02 whole entry, looked up, canonical isoform): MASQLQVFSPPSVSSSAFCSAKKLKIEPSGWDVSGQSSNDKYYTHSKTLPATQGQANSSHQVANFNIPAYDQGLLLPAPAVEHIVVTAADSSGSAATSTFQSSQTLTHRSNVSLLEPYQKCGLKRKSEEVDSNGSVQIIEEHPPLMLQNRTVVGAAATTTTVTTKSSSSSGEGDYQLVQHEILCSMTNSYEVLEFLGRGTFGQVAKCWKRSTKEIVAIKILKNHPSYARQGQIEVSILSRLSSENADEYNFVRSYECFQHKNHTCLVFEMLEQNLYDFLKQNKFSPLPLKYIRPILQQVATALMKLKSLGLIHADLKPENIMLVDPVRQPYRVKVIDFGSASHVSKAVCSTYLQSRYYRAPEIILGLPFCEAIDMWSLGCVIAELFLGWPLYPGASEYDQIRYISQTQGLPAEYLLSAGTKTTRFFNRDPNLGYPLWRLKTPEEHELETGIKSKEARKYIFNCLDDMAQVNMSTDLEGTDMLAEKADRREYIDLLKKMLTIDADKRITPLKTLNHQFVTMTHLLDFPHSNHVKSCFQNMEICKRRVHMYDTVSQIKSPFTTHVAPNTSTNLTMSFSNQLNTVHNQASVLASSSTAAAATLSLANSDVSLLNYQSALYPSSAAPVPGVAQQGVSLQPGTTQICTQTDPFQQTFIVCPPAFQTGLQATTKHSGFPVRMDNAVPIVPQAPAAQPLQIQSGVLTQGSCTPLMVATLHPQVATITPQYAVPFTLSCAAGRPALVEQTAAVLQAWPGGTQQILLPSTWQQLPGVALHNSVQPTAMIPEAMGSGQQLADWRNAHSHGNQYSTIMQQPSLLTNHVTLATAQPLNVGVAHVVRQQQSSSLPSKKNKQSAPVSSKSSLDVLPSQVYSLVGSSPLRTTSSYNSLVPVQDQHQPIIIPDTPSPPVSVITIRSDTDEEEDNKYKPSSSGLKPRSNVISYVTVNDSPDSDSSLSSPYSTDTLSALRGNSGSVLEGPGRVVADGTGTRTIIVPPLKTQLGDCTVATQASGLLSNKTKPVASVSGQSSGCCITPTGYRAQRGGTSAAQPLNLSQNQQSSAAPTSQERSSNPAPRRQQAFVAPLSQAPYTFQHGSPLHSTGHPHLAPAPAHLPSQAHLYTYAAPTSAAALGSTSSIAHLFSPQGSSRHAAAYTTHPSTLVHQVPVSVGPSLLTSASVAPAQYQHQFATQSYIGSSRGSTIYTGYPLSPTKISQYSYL

[36] = biological target: Casein kinase I isoform epsilon (Homo sapiens) (UniProt P49674); conditions: Compound concentration 1000.0 nM
[37] = biological target: Serine/threonine-protein kinase Nek6 (Homo sapiens) (UniProt Q9HC98); conditions: Compound concentration 1000.0 nM
Chain of Serine/threonine-protein kinase Nek6 (Homo sapiens) (Q9HC98 whole entry): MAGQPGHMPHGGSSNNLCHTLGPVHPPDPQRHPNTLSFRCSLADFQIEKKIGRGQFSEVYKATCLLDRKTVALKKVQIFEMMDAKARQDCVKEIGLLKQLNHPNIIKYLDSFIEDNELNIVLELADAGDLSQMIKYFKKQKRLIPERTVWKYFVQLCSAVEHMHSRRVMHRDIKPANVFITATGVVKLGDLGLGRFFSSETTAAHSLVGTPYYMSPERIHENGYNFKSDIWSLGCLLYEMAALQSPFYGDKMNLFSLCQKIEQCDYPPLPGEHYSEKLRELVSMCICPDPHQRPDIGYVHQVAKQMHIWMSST

[38] = biological target: BMP-2-inducible protein kinase (Homo sapiens) (UniProt Q9NSY1); conditions: Compound concentration 1000.0 nM

COc1ccc2c(c1)O[C@H](c1ccc(OC)c(OC)c1)C[C@@H]2NC(=O)C1(c2ccc3c(c2)OC(F)(F)O3)CC1 [A-1596584]
residual activity [1]: 100% | residual activity [2]: 100% | % Inhibition of Control Specific Binding (Mean n=2) [3]: -9% | residual activity [4]: 100% | % Inhibition of Control Specific Binding (Mean n=2) [5]: 5% | % Inhibition of Control Specific Binding (Mean n=2) [6]: -86.2% | residual activity [7]: 61% | residual activity [8]: 100% | residual activity [9]: 100% | residual activity [10]: 91% | residual activity [11]: 100% | residual activity [12]: 91% | residual activity [13]: 90% | residual activity [14]: 98% | residual activity [15]: 100% | residual activity [16]: 99% | residual activity [17]: 100% | residual activity [18]: 100% | residual activity [19]: 100% | residual activity [20]: 100% | residual activity [21]: 98% | residual activity [22]: 91% | residual activity [23]: 100% | % Inhibition of Control Specific Binding (Mean n=2) [24]: 73.7% | residual activity [25]: 97% | residual activity [26]: 96% | residual activity [27]: 100% | % Inhibition of Control Specific Binding (Mean n=2) [28]: -5.5% | residual activity [29]: 92% | residual activity [30]: 95% | residual activity [31]: 100% | residual activity [32]: 100% | residual activity [33]: 100% | residual activity [34]: 100% | residual activity [35]: 87% | residual activity [36]: 100% | residual activity [37]: 100% | residual activity [38]: 100%

COc1ccc2c(c1)O[C@@H](c1ccc(OC)c(OC)c1)C[C@H]2NC(=O)C1(c2ccc3c(c2)OC(F)(F)O3)CC1 [A-1596586]
residual activity [1]: 92% | residual activity [2]: 92% | % Inhibition of Control Specific Binding (Mean n=2) [3]: -9.1% | residual activity [4]: 90% | % Inhibition of Control Specific Binding (Mean n=2) [5]: 10.4% | % Inhibition of Control Specific Binding (Mean n=2) [6]: -27.5% | residual activity [7]: 68% | residual activity [8]: 100% | residual activity [9]: 100% | residual activity [10]: 90% | residual activity [11]: 96% | residual activity [12]: 77% | residual activity [13]: 99% | residual activity [14]: 90% | residual activity [15]: 100% | residual activity [16]: 91% | residual activity [17]: 82% | residual activity [18]: 95% | residual activity [19]: 91% | residual activity [20]: 75% | residual activity [21]: 86% | residual activity [22]: 100% | residual activity [23]: 100% | % Inhibition of Control Specific Binding (Mean n=2) [24]: 30.2% | residual activity [25]: 100% | residual activity [26]: 96% | residual activity [27]: 91% | % Inhibition of Control Specific Binding (Mean n=2) [28]: -9.9% | residual activity [29]: 96% | residual activity [30]: 93% | residual activity [31]: 100% | residual activity [32]: 78% | residual activity [33]: 100% | residual activity [34]: 90% | residual activity [35]: 86% | residual activity [36]: 100% | residual activity [37]: 100% | residual activity [38]: 100%
